# Results from ChEMBL document CHEMBL1149021, “Vasoactive substances from Saussurea lappa” (J Nat Prod, 1986).
# Activity calls are given as the source filed them. No cut-off for these calls is given here.
# Species: Oryctolagus cuniculus
# Test: Vasorelaxant activity in rabbit aorta assessed as inhibition of KCl-induced contraction
# Type: functional, tissue-based
row,Structure (SMILES),Activity
1,C=C1CC[C@H]2C(=C)C(=O)O[C@@H]2C2C(=C)CCC12 (some centres not stated),Active
2,C=C1C(=O)O[C@@H]2/C=C(\C)CC/C=C(\C)CC[C@@H]12,Active
